US20230265068A1, “TRANSIENT RECEPTOR POTENTIAL CANONICAL 3 INHIBITORS AND METHODS OF USE THEREOF” (University of Tennessee Research Foundation, priority 2020, published 2023)
Where two headings read alike, the source gives them in different places.

Tests used:
hTRPM8 = target: T1, hTRPM8 (Homo sapiens, UniProt Q7Z2W7); experiment: whole-cell patch clamp selectivity, HEK 293 cells overexpressing hTRPM8; assay type: cell-based; conditions: HEK293, with agonist, solutions without Ca2+, read-out: % of the current of hTRPM8 inhibited
T1 construct: expressed in transfected cells; host or cells: HEK293, transient transfection, pMO vector
T1 sequence (Q7Z2W7 whole entry): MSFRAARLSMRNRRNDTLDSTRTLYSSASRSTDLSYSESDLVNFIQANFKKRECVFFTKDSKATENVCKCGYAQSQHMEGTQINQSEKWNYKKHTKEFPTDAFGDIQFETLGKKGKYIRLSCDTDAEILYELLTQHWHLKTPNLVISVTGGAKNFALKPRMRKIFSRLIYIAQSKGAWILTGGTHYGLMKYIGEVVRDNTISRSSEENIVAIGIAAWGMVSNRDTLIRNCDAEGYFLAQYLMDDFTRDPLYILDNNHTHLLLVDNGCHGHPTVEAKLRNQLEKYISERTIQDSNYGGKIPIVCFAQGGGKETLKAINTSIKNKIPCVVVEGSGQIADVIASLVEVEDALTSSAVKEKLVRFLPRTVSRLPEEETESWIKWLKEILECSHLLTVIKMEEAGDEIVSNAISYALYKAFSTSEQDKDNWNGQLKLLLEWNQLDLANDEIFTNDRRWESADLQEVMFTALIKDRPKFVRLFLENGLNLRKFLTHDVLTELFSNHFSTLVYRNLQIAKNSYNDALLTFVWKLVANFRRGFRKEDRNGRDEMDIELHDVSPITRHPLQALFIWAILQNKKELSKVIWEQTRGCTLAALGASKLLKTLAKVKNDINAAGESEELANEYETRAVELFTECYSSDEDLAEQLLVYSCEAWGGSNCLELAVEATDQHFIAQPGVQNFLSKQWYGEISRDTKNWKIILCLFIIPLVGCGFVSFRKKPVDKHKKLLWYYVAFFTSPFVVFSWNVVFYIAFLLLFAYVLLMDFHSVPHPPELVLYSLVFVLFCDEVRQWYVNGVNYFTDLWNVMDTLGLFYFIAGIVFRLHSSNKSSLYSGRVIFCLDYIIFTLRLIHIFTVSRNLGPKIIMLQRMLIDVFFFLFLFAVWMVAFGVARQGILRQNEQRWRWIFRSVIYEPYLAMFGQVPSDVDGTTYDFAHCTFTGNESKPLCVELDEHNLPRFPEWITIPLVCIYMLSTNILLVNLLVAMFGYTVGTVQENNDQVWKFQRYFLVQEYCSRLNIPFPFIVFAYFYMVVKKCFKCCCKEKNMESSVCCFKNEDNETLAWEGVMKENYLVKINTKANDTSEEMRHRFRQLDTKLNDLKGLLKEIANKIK
Protocol: Human embryonic kidney 293 (HEK293; catalog number CRL-1573) cells were cultured in Dulbecco's modified Eagle's medium (Invitrogen) supplemented with 10% fetal bovine serum and 1% penicillin-streptomycin at 37° C. and 5% CO2. Constructs cloned in pMO (a pcDNA3-modified vector) were co-transfected with GFP-pMO, using Lipofectamine 2000 (Invitrogen) according to the manufacturer's instructions. Macroscopic currents in the whole-cell patch clamp configuration were recorded 18-24 h post-transfection. The extracellular solution contained 140 mM NaCl, 6 mM KCl, 2 mM MgCl2, 10 mM HEPES, and 10 mM glucose (pH 7.4). Pipettes were made of borosilicate glass (outer diameter, 1.5 mm; inner diameter, 1.10 mm; Sutter Instruments) and fire-polished with a resistance between 2.8 and 4.0 megaohms when filled with an intracellular solution that contained 140 mM CsCl, 5 mM EGTA, and 10 mM HEPES, pH 7.2. Currents were recorded with a Multiclamp 700B amplifier (Molecular Devices) using a 1-s ramp from −100 to 100 mV. […] Data were acquired with a sampling rate of 20 kHz, low-pass filtered (10 kHz), and analyzed offline using Clampfit v10.4.2.0 (Molecular Devices). […]

TRPC3 = target: T2, TRPC3 (Homo sapiens, UniProt Q13507); experiment: whole-cell patch clamp of HEK293 cells transfected with hTRPC3, currents activated by GSK1702934A; assay type: cell-based; parameters: expressed in transfected cells; host or cells: HEK293 (CRL-1573), transient transfection, pMO vector
T2 sequence (Q13507 1-921): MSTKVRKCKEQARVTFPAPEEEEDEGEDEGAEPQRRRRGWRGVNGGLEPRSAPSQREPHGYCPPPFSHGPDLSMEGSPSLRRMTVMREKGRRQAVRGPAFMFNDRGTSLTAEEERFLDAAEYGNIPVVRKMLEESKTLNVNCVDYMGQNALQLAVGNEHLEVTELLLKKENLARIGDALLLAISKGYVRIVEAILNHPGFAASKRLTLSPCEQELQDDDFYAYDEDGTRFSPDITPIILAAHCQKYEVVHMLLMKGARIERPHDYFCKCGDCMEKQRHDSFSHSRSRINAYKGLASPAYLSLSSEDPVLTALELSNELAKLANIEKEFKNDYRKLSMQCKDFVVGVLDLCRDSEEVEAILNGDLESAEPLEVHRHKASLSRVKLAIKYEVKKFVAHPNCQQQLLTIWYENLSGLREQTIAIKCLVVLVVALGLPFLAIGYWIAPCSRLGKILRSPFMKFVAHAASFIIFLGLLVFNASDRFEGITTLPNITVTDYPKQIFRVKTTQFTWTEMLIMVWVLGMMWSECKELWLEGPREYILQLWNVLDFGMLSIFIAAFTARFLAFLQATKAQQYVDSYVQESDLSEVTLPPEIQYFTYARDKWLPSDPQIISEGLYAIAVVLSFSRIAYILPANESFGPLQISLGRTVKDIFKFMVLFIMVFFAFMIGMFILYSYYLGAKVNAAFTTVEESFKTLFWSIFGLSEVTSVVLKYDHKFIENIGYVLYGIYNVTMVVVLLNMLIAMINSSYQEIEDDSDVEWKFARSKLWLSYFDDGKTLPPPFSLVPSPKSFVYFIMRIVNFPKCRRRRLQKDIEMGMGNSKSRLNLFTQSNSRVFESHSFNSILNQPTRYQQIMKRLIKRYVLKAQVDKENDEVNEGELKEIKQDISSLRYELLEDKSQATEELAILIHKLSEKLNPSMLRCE
Procedure, shortened: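 Whole-cell patch clamp on HEK293 cells co-transfected with hTRPC3 and GFP, recorded 18-24 h post-transfection. Bath held 140 mM NaCl, pH 7.4; pipette held 140 mM CsCl/5 mM EGTA, pH 7.2. Currents came from 1-s ramps −100 to 100 mV with GSK1702934A; compounds screened at 10 μM, IC50 from single-cell dose points.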

## CCNC(=O)c1cnn(-c2ccc(-n3ccc(Cl)c(Cl)c3=O)cc2)c1C(F)(F)F [Compound 22]
hTRPM8
  inhibition at 10 µM: < 5%
TRPC3; 10 μM compound in presence of agonist GSK1702934A, HEK293 whole-cell peak current, read-out: hTRPC3 % Inhibition at 10 μM (mean ± SEM)
  inhibition at 10 µM: 89 ± 1.14%
TRPC3; agonist GSK1702934A, HEK293 whole-cell patch clamp, read-out: hTRPC3 IC50 (μM, mean ± SEM)
  IC50: 0.37 ± 0.03 µM
TRPC3; same value expressed in ng/ml, read-out: TRPC3 IC50 displayed in FIG. 6 (converted)
  IC50: 0.51 µM
TRPC3; value shown in brain concentration figure, read-out: TRPC3 IC50 displayed in FIG. 6 (converted)
  IC50: 0.51 µM
